IC50 data for 23 molecules are collected here from patent US20240182470A1, “KRASG12C MUTANT PROTEIN INHIBITOR, PREARATION AND USE THEREOF” (YA THERAPEUTICS INC, priority 2021, published 2024).

Bounds are passed on as bounds.

A word on the IC50: it is the concentration that inhibits the measured activity by half.

This test relates to H358 (KRAS G12C mutant) cells. The test can be described thus: Tumor cell proliferation inhibition assay (Cell Titer-Glo, 72 h). Format: cell-based. Particulars: inhibition of tumor cell proliferation, 72 hours with compound, 10% fetal bovine serum; read-out: NCI-H538 IC50(nm). The protocol:
The H358 (KRAS G^12C mutant) cells were digested, centrifuged and resuspended, and the cell density was measured with a Scepter automatic cell counter. The cells were diluted to a solution containing 44,000 cells per milliliter, and the density-adjusted cell solution was 90 microliters per well. into a 96-well culture plate. The 96-well plate was placed in a 37° C., 5% CO2 incubator. After the cells were cultured for 24 hours, different concentrations of the compounds to be tested were added. The cells were incubated with the compounds for 72 hours in the presence of 10% fetal bovine serum. Glo Luminescent Cell Viability Assay Kit (see manufacturer's instructions for details) was used to measure ATP content to assess cell growth inhibition. Briefly, 30 μl of Cell Titer-Glo reagent was added to each well, and the plate was shaken for 10 minutes to induce cell lysis. Fluoroskan
Ascent FL (Thermo) assay was used to record the fluorescent signal, and the maximum signal value was obtained from cells treated with dimethyl sulfoxide for 72 hours. The minimum signal value was obtained from the medium alone (the number of cells was zero), and the % inhibition rate=(the maximum signal value compound signal value)/(the maximum signal value—the minimum signal value×100%, and the data were processed using Graphpadprism 5 software. By sigmoid Dose-response curve fitting to calculate the IC50 value. “A” means IC50≤50 nM; “B” means 50<IC50≤500 nM; “C” means 500<IC50≤2000 nM; “D” means 2000 nM<IC50
In general terms: Cellular ATP, detected with luciferase, serves as a proxy for viable cell number.
For `C=CC(=O)N1CCN(c2nc(OC[C@@]34CCCN3C[C@H](F)C4)nc3nc(-c4cc(O)cc5cccc(F)c45)c(F)cc23)[C@H](C)C1` [Compound 36, 7-(3-Hydroxy-8-fluoronaphthyl)-6-fluoro-4-(((R)-4-acryloyl-2-methylpiperazine)-1-yl)-2-(((2R,7aS)-2-fluorotetrahydro-1H-pyrincyclo-7a(5H)-yl)methoxy)pyridine[2,3-d]lopyrimidine], the IC50 is no more than 50 nM.

Consider `C=C(F)C(=O)N1CCN(c2nc(OC[C@@]34CCCN3C[C@H](F)C4)nc3c(F)c(-c4cccc5cccc(F)c45)c(Cl)cc23)[C@H](C)C1` [Compound 38, 6-Chloro-7-(8-fluoronaphthyl)-8-fluoro-4-(((R)-4-(2-fluoroacryloyl)-2-methylpiperazine)-1-yl)-2-(((2R,7aS)-2-fluorotetrahydro-1H-pyrinyl-7a(5H)-yl)methoxy)quinazoline], for which the half-inhibitory concentration (IC50) is no more than 50 nM.

`C=C(F)C(=O)N1C2CCC1CN(c1nc(OC[C@@]34CCCN3C[C@H](F)C4)nc3c(F)c(-c4cccc5cccc(F)c45)c(Cl)cc13)C2` [Compound 39, 6-Chloro-7-(8-fluoronaphthyl)-8-fluoro-4-(8-(2-fluoroacryloyl)-3,8-diazabicyclo[3.2.1]octan-3-yl)-2-(((2R,7aS)-2-fluorotetrahydro-1H-pyrincycline-7a(5H)-yl)methoxy)quinazoline]: the IC50 was no more than 50 nM.

On to `C=CC(=O)N1CCN(c2nc(OC[C@@]34CCCN3C[C@H](F)C4)nc3c(F)c(-c4cccc5cccc(F)c45)c(Cl)cc23)C[C@@H]1CC#N` [Compound 40, 6-Chloro-7-(8-fluoronaphthyl)-8-fluoro-4-(((S)-4-acryloyl-3-carbonitrileethylpiperazine)-1-yl)-2-(((2R,7aS)-2-fluorotetrahydro-1H-pyrinyl-7a(5H)-yl)methoxy)quinazoline], for which the IC50 is no more than 50 nM.

With `C=C(F)C(=O)N1CCN(c2nc(OC[C@@]34CCCN3C[C@H](F)C4)nc3c(F)c(-c4cccc5cccc(F)c45)c(Cl)cc23)C[C@@H]1CC#N` [Compound 41, 6-Chloro-7-(8-fluoronaphthyl)-8-fluoro-4-(((S)-4-(2-fluoroacryloyl)-3-carbonitrileethylpiperazine)-1-yl)-2-(((2R,7aS)-2-fluorotetrahydro-1H-pyrincycline-7a(5H)-yl)methoxy)quinazoline], the IC50 is no more than 50 nM.

As for `C=C(F)C(=O)N1C2CCC1CN(c1nc(OC[C@@]34CCCN3C[C@H](F)C4)nc3c(F)c(-c4cc(O)cc5cccc(F)c45)c(Cl)cc13)C2` [Compound 42, 6-Chloro-74(3-hydroxy-8-fluoronaphthyl)-8-fluoro-4-(8-(2-fluoroacryloyl)-3,8-diazabicyclo[3.2.1]octane-3-yl)-2-(((2R,7aS)-2-fluorotetrahydro-1H-pyrincycline-7a(5H)-yl)methoxy)quinazoline], the IC50 is no more than 50 nM.

Take `C=C(F)C(=O)N1CCN(c2nc(OC[C@@]34CCCN3C[C@H](F)C4)nc3c(F)c(-c4cc(O)cc5cccc(F)c45)c(Cl)cc23)[C@H](C)C1` [Compound 44, 6-Chloro-74(3-hydroxy-8-fluoronaphthyl)-8-fluoro-4-(((R)-4-(2-fluoroacryloyl)-2-methylpiperazine)-1-yl)-2-(((2R,7aS)-2-fluorotetrahydro-1H-pyrincycline-7a(5H)-yl)methoxy)quinazoline]: the IC50 was no more than 50 nM.

`C=CC(=O)N1CCN(c2nc(OC[C@@]34CCCN3C[C@H](F)C4)nc3c(F)c(-c4cc(O)cc5cccc(F)c45)c(Cl)cc23)[C@H](C)C1` [Compound 46, 6-Chloro-7-(3-hydroxy-8-fluoronaphthyl)-8-fluoro-4-(((R)-4-acryloyl-2-methylpiperazine)-1-yl)-2-(((2R,7aS)-2-fluorotetrahydro-1H-pyrinyl-7a(5H)-yl)methoxy)quinazoline]: the IC50 was no more than 50 nM.

Consider `C=CC(=O)N1CCN(c2nc(OC[C@@]34CCCN3C[C@H](F)C4)nc3c(F)c(-c4cccc5cccc(F)c45)ccc23)[C@H](C)C1` [Compound 47, 7-(8-Fluoronaphthyl)-8-fluoro-4-(((R)-4-acryloyl-2-methylpiperazine)-1-yl)-2-(((2R,7aS)-2-fluorotetrahydro-1H-pyrincyclo-7a(5H)-yl)methoxy)quinazoline], for which the IC50 is no more than 50 nM.

For `C=CC(=O)N1CCN(c2nc(OC[C@@]34CCCN3C[C@H](F)C4)nc3c(F)c(-c4cc(O)cc5cccc(F)c45)ccc23)[C@H](C)C1` [Compound 48, 7-(3-Hydroxy-8-fluoronaphthyl)-8-fluoro-4-(((R)-4-acryloyl-2-methylpiperazine)-1-yl)-2-(((2R, 7aS)-2-fluorotetrahydro-1H-pyrincycline-7a(5H)-yl)methoxy)quinazoline], the IC50 was no more than 50 nM.

For `C=CC(=O)N1CCN(c2nc(OCC34CCCN3CCC4)nc3c(F)c(-c4cc(O)cc5cccc(F)c45)ccc23)[C@H](C)C1` [Compound 49, 7-(3-Hydroxy-8-fluoronaphthyl)-8-fluoro-4-(((R)-4-acryloyl-2-methylpiperazine)-1-yl)-2-((tetrahydro-1H-pyrinyl-7a(5H)-yl)methoxy)quinazoline], the IC50 is no more than 50 nM.

As for `C=CC(=O)N1CCN(c2nc(OCC34CCCN3CCC4)nc3c(F)c(-c4cccc5cccc(F)c45)ccc23)[C@H](C)C1` [Compound 50, 7-(8-fluoronaphthyl)-8-fluoro-4-(((R)-4-acryloyl-2-methylpiperazine)-1-yl)-2-((tetrahydro-1H-pyrinecyclo-7a(5H)-yl)methoxy)quinazoline], the IC50 was no more than 50 nM.

Consider `C=C(F)C(=O)N1CCN(c2nc(OC[C@@]34CCCN3C[C@H](F)C4)nc3c(F)c(-c4cc(O)cc5cccc(F)c45)ccc23)C[C@@H]1CC#N` [Compound 52], for which the IC50 is no more than 50 nM.

Regarding `C=CC(=O)N1CCN(c2nc(OCC34CCCN3CCC4)nc3c(F)c(-c4cccc5cccc(F)c45)ccc23)C[C@@H]1CC#N` [Compound 54, 7-(8-fluoronaphthyl)-8-fluoro-4-(((S)-4-(acryloyl)-3-carbonitrileethylpiperazine)-1-yl)-2-((tetrahydro-1H-pyrin-7a(5H)-yl)methoxy)quinazoline], the IC50 was no more than 50 nM.

Regarding `C=CC(=O)N1CCN(c2nc(OCC34CCCN3CCC4)nc3c(F)c(-c4cc(O)cc5cccc(F)c45)ccc23)C[C@@H]1CC#N` [Compound 55], the IC50 is no more than 50 nM.

Take `C=C(F)C(=O)N1CCN(c2nc(OCC34CCCN3CCC4)nc3c(F)c(-c4cc(O)cc5cccc(F)c45)ccc23)C[C@@H]1CC#N` [Compound 57]: the concentration for half-maximal inhibition (IC50) was no more than 50 nM.

Turning to `C=C(F)C(=O)N1CCN(c2nc(OCC34CCCN3CCC4)nc3c(F)c(-c4cccc5cccc(F)c45)ccc23)C[C@@H]1CC#N` [Compound 58, 7-(8-fluoronaphthyl)-8-fluoro-4-(((S)-4-(2-fluoroacryloyl)-3-carbonitrileethylpiperazine)-1-yl)-2-((tetrakis Preparation of Hydro-1H-Pyrin-7a(5H)-yl)methoxy)quinazoline], the IC50 is no more than 50 nM.

With `C=CC(=O)N1CCN(c2nc(OC[C@@]34CCCN3CC(F)(F)C4)nc3c(F)c(-c4cc(O)cc5cccc(F)c45)ccc23)[C@H](C)C1` [Compound 60, 7-(3-Hydroxy-8-fluoronaphthyl)-8-fluoro-4-(((R)-4-acryloyl-2-methylpiperazine)-1-yl)-2-(((S)-2,2-difluorotetrahydro-1H-pyrinyl-7a(5H)-yl)methoxy)quinazoline], the IC50 is no more than 50 nM.

`C=CC(=O)N1CCN(c2nc(OC[C@@]34CCCN3CC(F)(F)C4)nc3c(F)c(-c4cccc5cccc(C)c45)ccc23)C[C@@H]1CC#N` [Compound 67]: the IC50 is no more than 50 nM.

On to `C=C(F)C(=O)N1CCN(c2nc(OC[C@@]34CCCN3CC(F)(F)C4)nc3c(F)c(-c4cccc5cccc(C)c45)ccc23)C[C@@H]1CC#N` [Compound 68, 7-(8-Methylnaphthyl)-8-fluoro-4-(((S)-4-(2-fluoroacryloyl)-3-carbonitrileethylpiperazine)-1-yl)-2-(((S)-2,2-difluorotetrahydro-1H-pyrinyl-7a(5H)-yl)methoxy)quinazoline], for which the IC50 is no more than 50 nM.

For `C=C(F)C(=O)N1CCN(c2nc(OC[C@@]34CCCN3CC(F)(F)C4)nc3c(F)c(-c4cccc5cccc(F)c45)c(Cl)cc23)C[C@@H]1CC#N` [Compound 78, 6-Chloro-7-(8-fluoronaphthyl)-8-fluoro-4-(((S)-4-(2-fluoroacryloyl)-3-carbonitrileethylpiperazine)-1-yl)-2-(((S)-2,2-difluorotetrahydro-1H-pyrincycline-7a(5H)-yl)methoxy)quinazoline], the IC50 is no more than 50 nM.

In the case of `C=C(F)C(=O)N1CCN(c2nc(OC[C@@]34CCCN3CC(F)(F)C4)nc3nc(-c4cccc5cccc(F)c45)c(F)cc23)C[C@@H]1CC#N` [Compound 83], the IC50 is no more than 50 nM.

Consider `C=C(F)C(=O)N1CCN(c2nc(OC[C@@]34CCCN3CC(F)(F)C4)nc3nc(-c4cc(O)cc5cccc(F)c45)c(F)cc23)C[C@@H]1CC#N` [Compound 84, 7-(3-Hydroxy-8-fluoronaphthyl)-6-fluoro-4-(((S)-4-(2-fluoroacryloyl)-3-carbonitrileethylpiperazine)-1-yl)-2-(((S)-2,2-difluorotetrahydro-1H-pyrinyl-7a(5H)-yl)methoxy)pyridine[2,3-d]lopyrimidine], for which the IC50 is no more than 50 nM.
